Reference: ChEMBL document CHEMBL4049438, “Discovery and Optimization of Isoquinoline Ethyl Ureas as Antibacterial Agents” (J Med Chem, 2017)
Converted amounts (≈) assume the structure as drawn.

Tests used:
[1] = molecular target: DNA topoisomerase 2-alpha (Homo sapiens, UniProt P11388); assay: Inhibition of human DNA topoisomerase 2-alpha
[2] = Inhibition of Staphylococcus aureus topoisomerase 4 subunit ParC/ParE relaxation expressed in Escherichia coli BL21 (DE3) using supercoiled pBR322 DNA as substrate after 1 hr by agarose gel electrophoresis
[3] = tested on: Staphylococcus aureus; assay: Antibacterial activity against methicillin-sensitive Staphylococcus aureus A-1178 infected in neutropenic mouse assessed as change in bacterial burden in thighs at 30 mg/kg, po administered every 2.75 hrs for 2 times measured 6.5 hrs post infection; type: functional
[4] = tested on: Escherichia coli; assay: Antibacterial activity against TolC deficient Escherichia coli by broth microdilution method; type: functional
[5] = Inhibition of Haemophilus influenzae DNA topoisomerase 4 subunit ParC/ParE relaxation expressed in Escherichia coli BL21 (DE3) using supercoiled pBR322 DNA as substrate after 1 hr mins by agarose gel electrophoresis
[6] = Inhibition of Escherichia coli DNA topoisomerase 4 subunit ParC/ParE relaxation expressed in Escherichia coli BL21 (DE3) using supercoiled pBR322 DNA as substrate after 1 hr by agarose gel electrophoresis
[7] = tested on: Moraxella catarrhalis; assay: Antibacterial activity against Moraxella catarrhalis A-894 by broth microdilution method; type: functional
[8] = tested on: Streptococcus pneumoniae; assay: Antibacterial activity against fluoroquinolone-resistant Streptococcus pneumoniae A-70 harboring topoisomerase gyrA S81F mutant/parc S79F mutant/parE I440V mutant by broth microdilution method; type: functional
[9] = Inhibition of Streptococcus pneumoniae DNA gyrase subunit GyrA/GyrB supercoiling activity expressed in Escherichia coli BL21 (DE3) using relaxed pBR322 DNA as substrate after 1 hr mins by agarose gel electrophoresis
[10] = tested on: Streptococcus pneumoniae; assay: Antibacterial activity against Streptococcus pneumoniae ATCC 49619 by broth microdilution method; type: functional
[11] = Inhibition of Escherichia coli N-terminal His6-tagged DNA gyrase subunit GyrA/GyrB supercoiling activity expressed in Escherichia coli BL21 (DE3) using relaxed pBR322 DNA as substrate after 1 hr by agarose gel electrophoresis
[12] = Inhibition of Haemophilus influenzae DNA gyrase subunit GyrA/GyrB supercoiling activity expressed in Escherichia coli BL21 (DE3) using relaxed pBR322 DNA as substrate after 1 hr mins by agarose gel electrophoresis
[13] = tested on: Escherichia coli; assay: Antibacterial activity against Escherichia coli ATCC 25922 by broth microdilution method; type: functional
[14] = molecular target: DNA gyrase (Staphylococcus aureus, UniProt P0A0K8+P20831)
[15] = Inhibition of Escherichia coli N-terminal His6-tagged DNA gyrase subunit GyrA/GyrB ATPase activity expressed in Escherichia coli BL21 (DE3) after 40 mins by spectrophotometric analysis
[16] = Inhibition of Escherichia coli DNA gyrase subunit GyrA/GyrB R136H mutant supercoiling activity expressed in Escherichia coli BL21 (DE3) using relaxed pBR322 DNA as substrate after 1 hr mins by agarose gel electrophoresis
[17] = tested on: Enterococcus faecium; assay: Antibacterial activity against vancomycin/fluoroquinolone-resistant Enterococcus faecium A-949 harboring topoisomerase gyrA E88K mutant/parC S80R mutant by broth microdilution method; type: functional
[18] = Inhibition of fluoroquinolone-resistant Staphylococcus aureus clinical isolate DNA gyrase subunit GyrB/GyrA S84L mutant supercoiling activity using relaxed pBR322 DNA as substrate after 1 hr by agarose gel electrophoresis
[19] = Inhibition of Streptococcus pneumoniae DNA topoisomerase 4 subunit ParC/ParE relaxation expressed in Escherichia coli BL21 (DE3) using supercoiled pBR322 DNA as substrate after 1 hr mins by agarose gel electrophoresis
[20] = tested on: Haemophilus influenzae; assay: Antibacterial activity against Haemophilus influenzae A-921 by broth microdilution method; type: functional
[21] = tested on: Enterococcus faecalis; assay: Antibacterial activity against Enterococcus faecalis ATCC 29212 by broth microdilution method; type: functional
[22] = tested on: Streptococcus pyogenes; assay: Antibacterial activity against Streptococcus pyogenes ATCC 19615 by broth microdilution method; type: functional
[23] = tested on: Staphylococcus aureus; assay: Antibacterial activity against methicillin/fluoroquinolone-resistant Staphylococcus aureus A-798 harboring topoisomerase gyrA S84L mutant/grlA S80F/Glu84V mutant by broth microdilution method; type: functional
[24] = tested on: Staphylococcus aureus; assay: Antibacterial activity against Staphylococcus aureus ATCC 29213 by broth microdilution method; type: functional
[25] = Tmax in Wistar rat at 2 mg/kg, po administered as suspension up to 24 hrs by LC-MS/MS analysis; type: ADME, organism-based; conditions: in vivo
[26] = Oral bioavailability in Wistar rat at 2 mg/kg administered as suspension up to 24 hrs by LC-MS/MS analysis; type: ADME, organism-based; conditions: in vivo
[27] = Solubility of compound in citrate buffer at pH 4; type: physicochemical
[28] = Octanol-phosphate buffer partition coefficient, logD of compound at pH 7.4 by LC/UV analysis; type: physicochemical
[29] = Half life in Wistar rat at 0.5 mg/kg, iv administered as solution up to 24 hrs by LC-MS/MS analysis; type: ADME, organism-based; conditions: in vivo
[30] = tested on: Staphylococcus aureus; assay: Antibacterial activity against methicillin-sensitive Staphylococcus aureus A-1178 infected in neutropenic mouse thigh infection model assessed as decrease in bacterial load in thighs administered po every 5.5 hrs for 4 times measured after 24 hrs; type: functional, organism-based
[31] = Protein binding to mouse plasma by rapid equilibrium dialysis method; type: ADME, cell-free; conditions: read-out: PPB (converted)
[32] = AUC in Wistar rat at 0.5 mg/kg, iv administered as solution up to 24 hrs by LC-MS/MS analysis; type: ADME, organism-based; parameters: dose 0.5 mg/kg, time < 24 hr, route intravenous; conditions: in vivo
[33] = Clearance in Wistar rat at 0.5 mg/kg, iv administered as solution up to 24 hrs by LC-MS/MS analysis; type: ADME, organism-based; conditions: in vivo
[34] = molecular target: hERG (KCNH2) (Homo sapiens, UniProt Q12809); assay: Inhibition of human ERG expressed in CHO cells at 10 uM after 3 mins at -80 mV holding potential by Qpatch assay; type: cell-based; conditions: CHO cells expressing human ERG
[35] = Solubility of compound in phosphate buffer at pH 7; type: physicochemical
[36] = tested on: Staphylococcus aureus; assay: Antibacterial activity against methicillin-sensitive Staphylococcus aureus A-1178 by broth microdilution method; type: functional
[37] = AUC in Wistar rat at 2 mg/kg, po administered as suspension up to 24 hrs by LC-MS/MS analysis; type: ADME, organism-based; parameters: dose 2 mg/kg, time < 24 hr, route oral; conditions: in vivo
[38] = AUC in mouse at 30 mg/kg, po after 24 hrs by LC-MS/MS analysis; type: ADME, organism-based; parameters: time < 24 hr, dose 30 mg/kg, route oral; conditions: in vivo
[39] = tested on: Mus musculus; assay: Unbound AUC in mouse at 30 mg/kg, po after 24 hrs by LC-MS/MS analysis; type: ADME, organism-based; conditions: in vivo
[40] = tested on: Staphylococcus aureus; assay: Antibacterial activity against methicillin-sensitive Staphylococcus aureus A-1178 infected in neutropenic mouse assessed as change in bacterial burden in thighs at 10 mg/kg, po administered every 2.75 hrs for 2 times measured 6.5 hrs post infection; type: functional
[41] = Volume of distribution in steady state in Wistar rat at 0.5 mg/kg, iv administered as solution up to 24 hrs by LC-MS/MS analysis; type: ADME, organism-based; conditions: in vivo, read-out: Vdss
[42] = Cmax in Wistar rat at 2 mg/kg, po administered as suspension up to 24 hrs by LC-MS/MS analysis; type: ADME, organism-based; parameters: dose 2 mg/kg, route oral; conditions: in vivo
[43] = Dissociation constant, pKa of the compound by pH metric assay; type: physicochemical
[44] = tested on: Mus musculus; assay: Unbound AUC in mouse at 100 mg/kg, po after 24 hrs by LC-MS/MS analysis; type: ADME, organism-based; conditions: in vivo
[45] = AUC in mouse at 100 mg/kg, po after 24 hrs by LC-MS/MS analysis; type: ADME, organism-based; parameters: time < 24 hr, dose 100 mg/kg, route oral; conditions: in vivo
[46] = tested on: Staphylococcus aureus; assay: Antibacterial activity against methicillin-sensitive Staphylococcus aureus A-1178 infected in neutropenic murine thigh infection model assessed as decrease in bacterial load in thighs administered po 22 hrs post infection measured 24 hrs post infection; type: functional, organism-based

Row | SMILES | IC50 [1] [µM] | IC50 [2] [nM] | Activity [3] [deltalog10CFU] | MIC [4] [µg/mL] | IC50 [5] [nM] | IC50 [6] [µM] | MIC [7] [µg/mL] | MIC [8] [µg/mL] | IC50 [9] [nM] | MIC [10] [µg/mL] | IC50 [11] [nM] | MIC [13] [µg/mL] | IC50 [14] [nM] | IC50 [16] [nM] | MIC [17] [µg/mL] | IC50 [18] [nM] | IC50 [19] [nM] | MIC [20] [µg/mL] | MIC [21] [µg/mL] | MIC [24] [µg/mL] | also measured
1 | CCNC(=O)Nc1cc2c(-c3ccncc3)ccc(C)c2cn1 | > 256 | 8000 | -1.3 | 2 (≈ 6.53 µM) | 8000 | 8 | 0.5 (≈ 1.63 µM) | 1 (≈ 3.26 µM) | 2000 | 1 (≈ 3.26 µM) | 125 | > 16 | 30 | 125 | 1 (≈ 3.26 µM) | 30 | 500 | 4 (≈ 13.1 µM) | 0.25 (≈ 0.816 µM) | 0.5 (≈ 1.63 µM) | IC50 [12]: 125 nM; IC50 [15]: < 200 nM; MIC [22]: 4 µg/mL (≈ 13.1 µM); MIC [23]: 0.5 µg/mL (≈ 1.63 µM)
2 | CCNC(=O)Nc1cc2c(-c3ccnc(C)c3)ccc(CNC(=O)OC)c2cn1 | > 256 | 2000 | -3.5 | 1 (≈ 2.54 µM) | 2000 | 8 | 0.5 (≈ 1.27 µM) | 1 (≈ 2.54 µM) | 500 | 0.5 (≈ 1.27 µM) | 30 | > 16 | 8 | 125 | 1 (≈ 2.54 µM) | < 4 | 125 | 2 (≈ 5.08 µM) | 0.25 (≈ 0.635 µM) | 0.06 (≈ 0.152 µM) | Tmax [25]: 15 min; bioavailability [26]: 30%; solubility [27]: 340 µg/mL (≈ 864 µM); logD [28]: 3.1; half-life [29]: 36 min; Activity [30]: Dose-dependent effect; fraction unbound [31]: 0.035; AUC at 24 h [32]: 261 ng·h/mL; clearance [33]: 32 mL/min/kg; inhibition at 0.05 h, 10 µM [34]: 67%; solubility [35]: 20 µg/mL (≈ 50.8 µM); MIC [36]: 0.06 µg/mL (≈ 0.152 µM); AUC at 24 h [37]: 319 ng·h/mL; AUC at 24 h [38]: 45300 ng·h/mL; fAUC [39]: 1.59 µg·h/mL; Activity [40]: -2.5 deltalog10CFU; Vd [41]: 0.65 L/kg; Cmax [42]: 287 ng/mL; MIC [22]: 0.5 µg/mL (≈ 1.27 µM); MIC [23]: 0.06 µg/mL (≈ 0.152 µM)
3 | CCNC(=O)Nc1cc2c(-c3ccnc(C)c3)ccc(COC(=O)N3CCN(C)CC3)c2cn1 | – | 500 | -0.3 | – | – | – | – | – | – | – | – | – | 8 | – | – | – | – | – | – | 0.5 (≈ 1.08 µM) | pKa [43]: 7; logD [28]: 3.1; fAUC [44]: 0.48 µg·h/mL; fraction unbound [31]: 0.052; inhibition at 0.05 h, 10 µM [34]: 15%; MIC [36]: 0.5 µg/mL (≈ 1.08 µM); AUC at 24 h [45]: 9200 ng·h/mL
4 | CC(=O)NC[C@H]1CN(c2ccc(N3CCOCC3)c(F)c2)C(=O)O1 | – | – | – | – | – | – | – | – | – | – | – | – | – | – | – | – | – | – | – | – | Activity [46]: Dose-dependent effect
5 | C#CCOC(=O)NCc1ccc(-c2ccnc(C)c2)c2cc(NC(=O)NCC)ncc12 | > 256 | 2000 | -3.9 | 0.5 (≈ 1.2 µM) | 2000 | 8 | 0.25 (≈ 0.599 µM) | 0.5 (≈ 1.2 µM) | 2000 | 0.5 (≈ 1.2 µM) | 30 | > 16 | 8 | 30 | 1 (≈ 2.4 µM) | < 4 | 125 | 1 (≈ 2.4 µM) | 0.25 (≈ 0.599 µM) | ≤ 0.03 | IC50 [12]: 30 nM; MIC [22]: 0.25 µg/mL (≈ 0.599 µM); MIC [23]: ≤ 0.03 µg/mL
